Usually IC50 stands for the concentration needed to halve the response being measured.

In this test the target is T1, full length AKT E17K (Homo sapiens, UniProt P31749, E17K).
T1 construct: host or cells: HEK-293 (ATCC CRL-1573)
T1 sequence (P31749 whole entry E17K): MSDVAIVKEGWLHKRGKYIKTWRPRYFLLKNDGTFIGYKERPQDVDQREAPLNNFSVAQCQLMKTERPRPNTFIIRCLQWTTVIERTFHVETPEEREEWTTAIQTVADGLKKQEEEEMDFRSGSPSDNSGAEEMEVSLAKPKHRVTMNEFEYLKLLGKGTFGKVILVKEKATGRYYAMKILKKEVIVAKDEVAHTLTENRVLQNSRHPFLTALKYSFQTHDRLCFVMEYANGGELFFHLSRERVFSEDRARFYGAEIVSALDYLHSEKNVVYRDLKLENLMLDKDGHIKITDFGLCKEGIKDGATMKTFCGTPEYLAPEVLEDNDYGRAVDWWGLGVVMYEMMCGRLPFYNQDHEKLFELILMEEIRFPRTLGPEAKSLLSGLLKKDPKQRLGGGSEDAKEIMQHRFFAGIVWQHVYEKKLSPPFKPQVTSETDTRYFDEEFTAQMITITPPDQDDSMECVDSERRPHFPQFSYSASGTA
The experiment in a line: NanoBRET Target Engagement (TE) Assay. In kind it is cell-based. As to conditions: competitive displacement of tracer in cells, read-out: AKT1 E17K IC50. In outline: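 Compound and tracer incubated 2 h before luminescence at donor 450 nm and acceptor 600 nm, with extracellular signal inhibited. EC50 by sigmoidal variable-slope regression.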
On the technique in general: Bioluminescence resonance energy transfer reports proximity on the nanometre scale.
For `N#Cc1nccc(NC2CCN(Cc3ccc(-n4c(-c5cccnc5N)nc5cc(C#N)c(-c6ccc(F)cc6)nc54)cc3)CC2)n1` [Example 557, 2-(2-Aminopyridin-3-yl)-3-(4-((4-((2-cyanopyrimidin-4-yl)amino)piperidin-1-yl)methyl)phenyl)-5-(4-fluorophenyl)-3H-imidazo[4,5-b]pyridine-6-carbonitrile], the 50% inhibitory concentration (IC50) was less than 0.015 µM.

In the case of `N#Cc1nccc(NC2CCN(Cc3ccc(-n4c(-c5cccnc5N)nc5ccc(-c6cccnc6F)nc54)cc3)CC2)n1` [Example 558, 4-((1-(4-(2-(2-Aminopyridin-3-yl)-5-(2-fluoropyridin-3-yl)-3H-imidazo[4,5-b]pyridin-3-yl)benzyl)piperidin-4-yl)amino)pyrimidine-2-carbonitrile], the IC50 was less than 0.015 µM.

Consider `Cn1cnc(-c2ccc3nc(-c4cccnc4N)n(-c4ccc(CN5CCC(Nc6ccnc(C#N)n6)CC5)cc4)c3n2)n1` [Example 559, 4-((1-(4-(2-(2-Aminopyridin-3-yl)-5-(1-methyl-1H-1,2,4-triazol-3-yl)-3H-imidazo[4,5-b]pyridin-3-yl)benzyl)piperidin-4-yl)amino)pyrimidine-2-carbonitrile], for which the 50% inhibitory concentration (IC50) is 0.015 to 0.06 µM.

As for `CCOc1ccc(-c2ccc3nc(-c4cccnc4N)n(-c4ccc(CN5CCC(Nc6ccnc(C#N)n6)CC5)cc4)c3n2)nc1` [Example 560, 4-((1-(4-(2-(2-Aminopyridin-3-yl)-5-(5-ethoxypyridin-2-yl)-3H-imidazo[4,5-b]pyridin-3-yl)benzyl)piperidin-4-yl)amino)pyrimidine-2-carbonitrile], the IC50 is less than 0.015 µM.

For `N#Cc1nccc(NC2CCN(Cc3ccc(-n4c(-c5cccnc5N)nc5ccc(-c6ccnc(F)c6)nc54)cc3)CC2)n1` [Example 561, 4-((1-(4-(2-(2-Aminopyridin-3-yl)-5-(2-fluoropyridin-4-yl)-3H-imidazo[4,5-b]pyridin-3-yl)benzyl)piperidin-4-yl)amino)pyrimidine-2-carbonitrile], the IC50 was less than 0.015 µM.

Turning to `Cn1ncc(-c2ccc3nc(-c4nccnc4N)n(-c4ccc(CN5CCC(Nc6ccnc(C#N)n6)CC5)cc4)c3n2)n1` [Example 562, 4-((1-(4-(2-(3-Aminopyrazin-2-yl)-5-(2-methyl-2H-1,2,3-triazol-4-yl)-3H-imidazo[4,5-b]pyridin-3-yl)benzyl)piperidin-4-yl)amino)pyrimidine-2-carbonitrile], the IC50 is less than 0.015 µM.

Take `COc1cccnc1-c1ccc2nc(-c3cccnc3N)n(-c3ccc(CN4CCC(Nc5ccnc(C#N)n5)CC4)cc3)c2n1` [Example 563, 4-((1-(4-(2-(2-Aminopyridin-3-yl)-5-(3-methoxypyridin-2-yl)-3H-imidazo[4,5-b]pyridin-3-yl)benzyl)piperidin-4-yl)amino)pyrimidine-2-carbonitrile]: the 50% inhibitory concentration (IC50) is less than 0.015 µM.

For the compound `Cn1nncc1-c1ccc2nc(-c3cccnc3N)n(-c3ccc(CN4CCC(Nc5ccnc(C#N)n5)CC4)cc3)c2n1` [Example 564, 4-((1-(4-(2-(2-Aminopyridin-3-yl)-5-(1-methyl-1H-1,2,3-triazol-5-yl)-3H-imidazo[4,5-b]pyridin-3-yl)benzyl)piperidin-4-yl)amino)pyrimidine-2-carbonitrile], the half-maximal inhibitory concentration (IC50) lay in the range of 0.015 to 0.06 µM.

Consider `Cc1cc2nc(-c3cccnc3N)n(-c3ccc(CN4CCC(Nc5ccnc(C#N)n5)CC4)cc3)c2nc1C#N` [Example 565, 2-(2-Aminopyridin-3-yl)-3-(4-((4-((2-cyanopyrimidin-4-yl)amino)piperidin-1-yl)methyl)phenyl)-6-methyl-3H-imidazo[4,5-b]pyridine-5-carbonitrile], for which the IC50 is less than 0.015 µM.

For `Cc1nnc(-c2ccc3nc(-c4cccnc4N)n(-c4ccc(CN5CCC(Nc6ccnc(C#N)n6)CC5)cc4)c3n2)o1` [Example 566, 4-((1-(4-(2-(2-Aminopyridin-3-yl)-5-(5-methyl-1,3,4-oxadiazol-2-yl)-3H-imidazo[4,5-b]pyridin-3-yl)benzyl)piperidin-4-yl)amino)pyrimidine-2-carbonitrile], the IC50 fell in the range of 0.015 to 0.06 µM.

Regarding `Cn1ncnc1-c1ccc2nc(-c3cccnc3N)n(-c3ccc(CN4CCC(Nc5ccnc(C#N)n5)CC4)cc3)c2n1` [Example 567, 4-((1-(4-(2-(2-Aminopyridin-3-yl)-5-(1-methyl-1H-1,2,4-triazol-5-yl)-3H-imidazo[4,5-b]pyridin-3-yl)benzyl)piperidin-4-yl)amino)pyrimidine-2-carbonitrile], the IC50 is less than 0.015 µM.

Consider `Cc1cnn(-c2ccc3nc(-c4cccnc4N)n(-c4ccc(CN5CCC(Nc6ccnc(C#N)n6)CC5)cc4)c3n2)n1` [Example 568, 4-((1-(4-(2-(2-Aminopyridin-3-yl)-5-(4-methyl-2H-1,2,3-triazol-2-yl)-3H-imidazo[4,5-b]pyridin-3-yl)benzyl)piperidin-4-yl)amino)pyrimidine-2-carbonitrile], for which the half-maximal inhibitory concentration (IC50) was less than 0.015 µM.

With `Cn1cnnc1-c1ccc2nc(-c3cccnc3N)n(-c3ccc(CN4CCC(Nc5ccnc(C#N)n5)CC4)cc3)c2n1` [Example 569, 4-((1-(4-(2-(2-Aminopyridin-3-yl)-5-(4-methyl-4H-1,2,4-triazol-3-yl)-3H-imidazo[4,5-b]pyridin-3-yl)benzyl)piperidin-4-yl)amino)pyrimidine-2-carbonitrile], the IC50 is 0.06 to 0.6 µM.

As for `N#Cc1nccc(NC2CCN(Cc3ccc(-n4c(-c5cccnc5N)nc5ccc(-c6ncccc6F)nc54)cc3)CC2)n1` [Example 570, 4-((1-(4-(2-(2-Aminopyridin-3-yl)-5-(3-fluoropyridin-2-yl)-3H-imidazo[4,5-b]pyridin-3-yl)benzyl)piperidin-4-yl)amino)pyrimidine-2-carbonitrile], the IC50 was less than 0.015 µM.

Turning to `Cc1cccc(-c2ccc3nc(-c4cccnc4N)n(-c4ccc(CN5CCC(Nc6ccnc(C#N)n6)CC5)cc4)c3n2)n1` [Example 571, 4-((1-(4-(2-(2-Aminopyridin-3-yl)-5-(6-methylpyridin-2-yl)-3H-imidazo[4,5-b]pyridin-3-yl)benzyl)piperidin-4-yl)amino)pyrimidine-2-carbonitrile], the IC50 is less than 0.015 µM.

For `N#Cc1nccc(NC2CCN(Cc3ccc(-n4c(-c5cccnc5N)nc5ccc(-c6ncn(C(F)F)n6)nc54)cc3)CC2)n1` [Example 572, 4-((1-(4-(2-(2-Aminopyridin-3-yl)-5-(1-(difluoromethyl)-1H-1,2,4-triazol-3-yl)-3H-imidazo[4,5-b]pyridin-3-yl)benzyl)piperidin-4-yl)amino)pyrimidine-2-carbonitrile], the 50% inhibitory concentration (IC50) was less than 0.015 µM.

Take `N#Cc1nccc(NC2CCN(Cc3ccc(-n4c(-c5cncnc5N)nc5ccc(-c6ccc(F)cn6)nc54)cc3)CC2)n1` [Example 573, 4-((1-(4-(2-(4-Aminopyrimidin-5-yl)-5-(5-fluoropyridin-2-yl)-3H-imidazo[4,5-b]pyridin-3-yl)benzyl)piperidin-4-yl)amino)pyrimidine-2-carbonitrile]: the IC50 is 0.015 to 0.06 µM.

Consider `N#Cc1nccc(NC2CCN(Cc3ccc(-n4c(-c5nccnc5N)nc5ccc(-c6ccc(F)cn6)nc54)cc3)CC2)n1` [Example 574, 4-((1-(4-(2-(3-Aminopyrazin-2-yl)-5-(5-fluoropyridin-2-yl)-3H-imidazo[4,5-b]pyridin-3-yl)benzyl)piperidin-4-yl)amino)pyrimidine-2-carbonitrile], for which the IC50 is less than 0.015 µM.

Source of the values: US12209087B2, “AKT1 modulators” (Alterome Therapeutics, Inc., priority 2022, dated 2025).
